# In paper PMC6982876, “Synthesis of Novel Benzodifuranyl; 1,3,5-Triazines; 1,3,5-Oxadiazepines; and Thiazolopyrimidines Derived from Visnaginone and Khellinone as Anti-Inflammatory and Analgesic Agents” (Molecules, 2020):
# Marks after values point to notes of the source that are not given here.
# What was measured:
# ovine COX-1 = target: T1, ovine COX-1 (Ovis aries, UniProt P05979); assay: In vitro COX inhibitor screening assay (EIA kit, Cayman), COX-1; assay type: biochemical; details: mean of two determinations, enzyme kit, read-out: COX1 IC50
# T1 construct: purchased Cayman Chemical, Ann Arbor, MI, USA 560131
# T1 sequence (P05979 25-600): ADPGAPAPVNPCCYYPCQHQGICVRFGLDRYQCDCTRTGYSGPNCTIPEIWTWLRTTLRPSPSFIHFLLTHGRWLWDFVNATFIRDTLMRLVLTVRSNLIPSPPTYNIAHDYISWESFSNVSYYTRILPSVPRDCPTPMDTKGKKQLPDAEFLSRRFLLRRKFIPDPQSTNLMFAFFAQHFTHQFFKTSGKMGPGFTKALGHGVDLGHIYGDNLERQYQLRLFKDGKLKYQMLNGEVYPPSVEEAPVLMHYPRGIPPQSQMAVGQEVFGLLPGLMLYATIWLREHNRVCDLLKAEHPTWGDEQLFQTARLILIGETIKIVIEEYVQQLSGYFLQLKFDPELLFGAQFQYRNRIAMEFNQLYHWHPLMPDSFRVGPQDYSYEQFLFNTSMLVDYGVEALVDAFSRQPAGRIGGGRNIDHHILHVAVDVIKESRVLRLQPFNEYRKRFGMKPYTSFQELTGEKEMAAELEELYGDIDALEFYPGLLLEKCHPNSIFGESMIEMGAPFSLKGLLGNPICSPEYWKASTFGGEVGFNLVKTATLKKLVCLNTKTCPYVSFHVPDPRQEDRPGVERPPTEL
# Procedure: (§1) Furthermore, the selectivity index for COX-2 (COX-1 IC50 / COX-2 IC50) was calculated for the compounds.
# human recombinant COX-2 = target: T2, human recombinant COX-2 (Homo sapiens, UniProt P35354); assay: In vitro COX inhibitor screening assay (EIA kit, Cayman), COX-2; assay type: biochemical; details: for COX2 (SI) selectivity index: COX-1 IC50 / COX-2 IC50; for IC50: COX-2, mean of two determinations, enzyme kit, read-out: COX2 IC50
# T2 construct: purchased Cayman Chemical, Ann Arbor, MI, USA 560131
# T2 sequence (P35354 18-604): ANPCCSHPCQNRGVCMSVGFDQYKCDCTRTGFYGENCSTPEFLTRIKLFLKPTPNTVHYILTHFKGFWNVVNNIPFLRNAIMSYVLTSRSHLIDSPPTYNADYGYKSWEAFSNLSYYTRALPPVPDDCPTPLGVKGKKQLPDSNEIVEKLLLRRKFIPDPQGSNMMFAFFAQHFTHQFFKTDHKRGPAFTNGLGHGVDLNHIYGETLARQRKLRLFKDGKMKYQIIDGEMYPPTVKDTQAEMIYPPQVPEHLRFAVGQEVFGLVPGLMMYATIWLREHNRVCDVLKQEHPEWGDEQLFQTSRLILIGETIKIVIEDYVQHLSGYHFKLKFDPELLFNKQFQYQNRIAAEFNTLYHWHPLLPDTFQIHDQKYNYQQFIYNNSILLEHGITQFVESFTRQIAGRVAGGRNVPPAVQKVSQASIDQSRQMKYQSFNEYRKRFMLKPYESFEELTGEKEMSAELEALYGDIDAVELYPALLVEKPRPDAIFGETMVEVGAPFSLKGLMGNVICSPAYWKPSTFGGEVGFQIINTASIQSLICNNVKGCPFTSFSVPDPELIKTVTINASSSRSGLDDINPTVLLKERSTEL
# Procedure: as §1
# [1] = tested on: acetic acid-induced writhing in mice; assay: Acetic acid-induced writhing test (analgesic activity); assay type: in vivo; details: 10 mg/kg p.o., n = 5; for Writhing Number in 20 min (Mean ± SEM): acetic acid 1 h after dosing; for Analgesic Activity (% protection): writhing test
# Procedure, shortened: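 Mice of 25–30 g, fasted 8 h, given compound at 10 mg/kg p.o., five animals per group. One hour later, 1% acetic acid i.p. (0.1 mL/10 g); writhes counted over 20 min. Percent protection calculated against the saline control group.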
# [2] = tested on: carrageenan-induced paw edema in rats; assay: Carrageenan-induced paw edema (anti-inflammatory activity); assay type: in vivo; details: 10 mg/kg oral; for % Change in Paw Height (Mean ± SEM): n = 5
# Procedure, shortened: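 Albino rats weighing 150–180 g, in groups of five, received test compounds orally at 10 mg/kg; one hour later 0.1 mL of 1% carrageenan was injected into the left hind paw. Paw inflammation height was measured by digital caliber plethysmometer at 0, 1, 2 and 3 h, expressed as percentage increase relative to the uninjected right paw, with percentage edema inhibition versus control calculated at 3 h.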
# [3] = tested on: interleukin-1 beta (IL-1 β); assay: ELISA of serum interleukin-1 beta after paw edema test; assay type: in vivo, rats; details: rat serum at the end of the paw edema test, mean ± SEM, n = 5
# Procedure: IL1 is one of the important inflammatory mediators and is used to confirm the anti-inflammatory activities of new anti-inflammatory compounds. At the end of the paw edema test, blood samples were collected from the orbital axis of the eye under light ether anesthesia. Sera were separated after centrifugation of blood at 5000 rpm for 15 min; the sera were stored at –80 °C until the ELISA assay was performed according to the manufacturer instructions.
Structure (SMILES),IC50 (ovine COX-1),COX2 (SI) selectivity index (human recombinant COX-2),IC50 (human recombinant COX-2),Writhing Number in 20 min (Mean ± SEM) [1],Analgesic Activity (% protection) [1],% Change in Paw Height (Mean ± SEM) ([2]; 1 hr after carrageenan),% Change in Paw Height (Mean ± SEM) ([2]; 2 hr after carrageenan),Anti-Inflammatory Activity (% Inhibition of Edema) ([2]; 3 hr after carrageenan),% Change in Paw Height (Mean ± SEM) ([2]; 3 hr after carrageenan),IL-1 β Concentration [3],melting point
"COc1c2ccoc2cc2oc(C3=NC4=CC(=O)N5C(=O)C(=Cc6ccccc6)SC5N4C(=O)C(=Cc4ccccc4)O3)c(C)c12 (stereo not drawn) [Compound 13a, 2,10-di(benzylidene)-8-(4-methoxy-3-methylbenzo[1,2-b:5,4-b`]difuran-2-yl)-5H,12aH-thiazolo[2’,3’:2,3]pyrimido[6,1-d][1,3,5]oxadiazepine-3,5,11(2H,10H)-trione]",5790 nM,90,64 nM,33 ± 1.9 ^a,42 ± 1.90 ^a %,0.27 ± 0.02 ^a %,0.21 ± 0.01 ^a %,59%,0.24 ± 0.01 ^a %,39 ± 0.31 ^b Pg /mL,> 350 °C
"COc1c2occc2c(OC)c2c(C)c(C3=NC4=CC(=O)N5C(=O)CSC5N4C=N3)oc12 (stereo not drawn) [Compound 11b, 8-(4,8-dimethoxy-3-methylbenzo[1,2-b:5,4-b`]difuran-2-yl)-2-hydro-5H,11aH-thiazolo [2’, 3’:2,3]pyrimido[1,6-a][1,3,5]triazine-3,5-dione]",6600 nM,83,80 nM,37 ± 2.3 ^a,38 ± 0.80 ^a %,0.29 ± 0.01 ^a %,0.23 ± 0.01 ^a %,56%,0.27 ± 0.02 ^a %,42 ± 0.98 ^b Pg /mL,> 350 °C
"COc1c2occc2c(OC)c2c(C)c(C3=NC4=CC(=O)N5C(=O)C(=Cc6ccc(Cl)cc6)SC5N4C(=O)C(=Cc4ccc(Cl)cc4)O3)oc12 (stereo not drawn) [Compound 13e, 2,10-bis(4-chlorobenzylidene)-8-(4,8-dimethoxy-3-methylbenzo[1,2-b:5,4-b`]difuran-2-yl)-5H,12aH-thiazolo[2’,3’:2,3]pyrimido[6,1-d][1,3,5]oxadiazepine-3,5,11(2H,10H)-trione]",5100 nM,96,53 nM,28 ± 1.3 ^a,47 ± 1.7 ^a %,0.22 ± 0.01 ^a %,0.17 ± 0.02 ^a %,64%,0.19 ± 0.02 ^a %,34 ± 0.33 ^b Pg /mL,> 350 °C
"COc1c2occc2c(OC)c2c(C)c(C(=Nc3cc(N4CCOCC4)nc(N4CCOCC4)n3)N3CCOCC3)oc12 [Compound 10d, 1-(4,8-dimethoxy-3-methylbenzo [1,2-b: 5,4-b`]difuran-2-yl)-N-(2,6-dimorpholino-pyrimidin-4-yl)-1-morpholinomethanimine]",4450 nM,97,46 nM,26 ± 1.2 ^a,49 ± 1.1 ^a %,0.20 ± 0.01 ^a %,0.15 ± 0.02 ^a %,66%,0.17 ± 0.02 ^a %,32 ± 0.45 ^b Pg /mL,> 350 °C
"COc1c2ccoc2cc2oc(C3=NC4=CC(=O)N5C(=O)CSC5N4C=N3)c(C)c12 (stereo not drawn) [Compound 11a, 8-(4-methoxy-3-methylbenzo[1,2-b:5,4-b`]difuran-2-yl)-2-hydro-5H,11aH-thiazolo[2’,3’: 2,3]pyrimido[1,6-a][1,3,5]triazine-3,5-dione]",6850 nM,81,85 nM,39 ± 2.1 ^a,36 ± 0.75 ^a %,0.30 ± 0.02 ^a %,0.24 ± 0.01 ^a %,55%,0.28 ± 0.01 ^a %,43 ± 1.15 ^b Pg /mL,> 350 °C
"COc1c2occc2c(OC)c2c(C)c(C3=NC4=CC(=O)N5C(=O)CSC5N4C(=O)CO3)oc12 (stereo not drawn) [Compound 12b, 8-(4,8-dimethoxy-3-methylbenzo[1,2-b:5,4-b`]difuran-2-yl)-5H,12aH-thiazolo[2’,3’:2,3] pyrimido[6,1-d][1,3,5]oxadiazepine-3,5,11(2H,10H)-trione]",6100 nM,87,70 nM,34 ± 1.7 ^a,41 ± 1.10 ^a %,0.28 ± 0.01 ^a %,0.22 ± 0.02 ^a %,58%,0.25 ± 0.02 ^a %,40 ± 0.22 ^b Pg /mL,> 350 °C
